Results: PMC6017563 (Molecules : A Journal of Synthetic Chemistry and Natural …, 2018)

What was measured:
[1] = in vivo; conditions: rat; for half-life: plasma
Description: The PK parameters for each experimental group were estimated by one-compartmental analysis using WinNonlin® software (version 7.0, Pharsight®, a Certara™ Company, Princeton, NJ, USA).
For the vehicle-administered groups (Groups 2 and 5), the above dispersion solution was administered instead of the drug (Table 5). Blood samples were directly drawn from the right jugular vein at predetermined time intervals before administration and at 0.25, 1, 2, 4, 8 h, 1, 2, 3, 4, 5, 6, 7, 11, and 14 days after the drug administration. Approximately 300 μL of blood was collected periodically in heparinized tubes via the catheter and was immediately centrifuged at 12,000 g for 5 min and then stored at −80 °C until analysis.
After being shaken with a vortex mixer for 3 min and centrifuged at 10,000× g for 5 min at room temperature, the upper supernatant was transferred to a clean tube and mixed with 20 µL of acetic acid and 900 µL of methylene chloride by vortex-mixing for 3 min and centrifugation at 10,000× g for 5 min at room temperature. The aqueous upper sample aliquots (10 µL) were directly injected into the UPLC–MS/MS system. Analyses were performed with the following UPLC–MS/MS system: Acquity™ UPLC system (Waters Corp., Milford, MA, USA), Mass Spectrometer (Xevo™ TQ-S, Waters Corp.), HALO peptide ES-C18 column (2.1 mm × 100 mm, 2.7 µm particle size, Advanced Material Technology, Wilmington, DE, USA). The mobile phase consisted of 1% acetic acid in water and 1% acetic acid in acetonitrile with gradient at a flow rate of 0.2 mL/min.
The mass spectrometric detection was performed using an electrospray ionization (ESI) source in positive ionization mode. The optimization of MS parameters was accomplished as follows: capillary voltage, 2.9 kV; ion source temperature, 150 °C; desolvation temperature, 350 °C; flow rate of cone gas, 150 L/h; flow rate of desolation gas, 600 L/h; and pressure of argon gas, 4.5 × 10^−3 mbar, respectively. […] Data acquisition and analysis were performed by Masslynx 4.1 software (Waters Corp., Milford, CT, USA).
The PK and PD analysis was performed by non-compartmental and compartment analysis using WinNonlin® software (version 7.0, Pharsight®, a Certara™ Company, Princeton, NJ, USA). The maximum plasma concentration (Cmax) and the time to reach Cmax (Tmax) were measured by visual observation of the individual plasma concentration–time curve. The AUC0–∞ was integrated by the linear trapezoidal rule from time zero to the final measured concentration and was extrapolated from the final measured concentration to infinity. […] The elimination rate constant k is a value used to describe the rate at which the drug is removed from the biological system. The volume of distribution (Vd), which is the theoretical volume in biological fluid, was calculated as CL divided by the k, and the bioavailability (F) was estimated as the AUC0–∞ obtained from SC administration divided by the AUC0–∞, obtained from IV administration. AUEC could be estimated by numerical integration over all segments of the effect-time curve by the trapezoidal rule without extrapolation to infinity. Because the endogenous testosterone was used as a PD marker in this study, the AUEC value subtracted from the baseline AUEC was used for data analysis.
The PK–PD modeling was conducted to describe the PK–PD relationship, and to estimate model parameters using Berkeley Madonna software (ver. 8.3.14). Berkeley Madonna software is a useful tool for modeling and analysis of various biological systems by solving the various differential equations. […] Consequently, the PD model was established in two steps. First, the baseline model was developed by using the baseline profiles of the vehicle-administered control group. Second, the drug-effect model was established based on the parameters that were estimated from the baseline model.

[2] = test system: testosterone in plasma; test: Testosterone-suppressive effect (plasma testosterone, AUEC, PK-PD model), normal rats; type: in vivo; conditions: Wistar, baseline AUEC subtracted, mean ± SE, n = 5
Excerpt: Leuprolide is a GnRH agonist for the treatment of prostate cancer which is a target disease in this study. In the label of the Lucrin depot, this is indicated for palliative treatment of advanced prostatic cancer. Therefore, we used the testosterone concentration as a PD marker of prostate cancer, and plasma testosterone is one of qualified biomarkers used as outcomes in the therapeutic area of oncology. Since most of the PD responses are expressed as a concentration profile of endogenous substances, it is difficult to calculate the value as a general trapezoidal rule. Scheff et al. introduced several methods for calculating AUEC when baselines differ. In this study, drug-specific AUEC was calculated by subtracting the baseline AUEC from the AUEC calculated by a general method, and these drug-specific AUECs were calculated by dividing them into positive AUECs and negative AUECs. […] There were significant differences between positive and negative AUEC in all experimental groups. When absolute values of positive and negative AUEC were compared, negative AUEC was more than three times higher. […] However, there was no significant difference in AUEC between each group on formulation, species and route of administration. This estimation of AUEC means that it could be used as a method for evaluating the formulation.
The PK–PD model, which describes the mechanism of negative feedback of leuprolide, was selected based on leuprolide mechanism characteristics and biomarker characteristics. […] The equations of the baseline model are as follows:(11) dR/dt = kin−kout·R (12) R0, wistar = 4.353 (13) R0,Iar:COP = 4.094 where kin and kout represent the apparent zero-order rate constant for the production of response and the first-order rate constant for the loss of response, respectively. These were estimated by curve fitting with the vehicle-administered group and used as the basic parameters of the drug-effect model described below (Group 2).
For this, several PD models were attempted, and the final PD model decided on was the tolerance model including the feedback compartment.
The plasma concentration of testosterone in plasma samples of each group was quantified using testosterone enzyme-linked immunosorbent assay (ELISA) kits (R&D Systems, Minneapolis, MN, USA). […]
Determination of the testosterone concentration was performed on using the validated Parameter^TM Testosterone Assay (R&D Systems, Minneapolis, MN, USA) and its process. […] The reaction was stopped when 50 μL of stop solution (2N sulfuric acid) was added, and the optical density of each well was measured using SynergyMX (BioTek, Winooski, VT, USA). All plasma samples were measured twice. […]

[3] = Group 1, leuprolide solution 0.1 mg/kg IV
[4] = Group 3, leuprolide solution 0.1 mg/kg SC

SMILES: CCNC(=O)[C@@H]1CCCN1C(=O)[C@H](CCCNC(=N)N)NC(=O)[C@H](CC(C)C)NC(=O)[C@@H](CC(C)C)NC(=O)[C@H](Cc1ccc(O)cc1)NC(=O)[C@H](CO)NC(=O)[C@H](Cc1c[nH]c2ccccc12)NC(=O)[C@H](Cc1c[nH]cn1)NC(=O)[C@@H]1CCC(=O)N1 [leuprolide, Leuprolide (Pyr-His-Trp-Ser-Tyr-D-Leu-Leu-Arg-Pro-NHEt)]
- AUC(0-inf) ([1]; Wistar, in vivo, iv, 0.1 mg/kg): 106 ± 17.3 ng·h/mL
- AUC(0-t) ([1]; Wistar, in vivo, iv, 0.1 mg/kg): 103 ± 16.9 ng·h/mL
- C0 ([1]; Wistar, in vivo, iv, 0.1 mg/kg): 97.1 ± 13 ng/mL
- Vd ([1]; Wistar, in vivo, iv, 0.1 mg/kg): 0.193 ± 0.0542 L
- clearance ([1]; Wistar, in vivo, iv, 0.1 mg/kg): 4.14 mL/min
- AUC(0-inf) ([1]; Wistar, in vivo, sc, 0.1 mg/kg): 53.3 ± 9.96 ng·h/mL
- AUC(0-t) ([1]; Wistar, in vivo, sc, 0.1 mg/kg): 51.2 ± 9.56 ng·h/mL
- Cmax ([1]; Wistar, in vivo, sc, 0.1 mg/kg): 41.5 ± 4.61 ng/mL
- bioavailability ([1]; Wistar, in vivo, sc, 0.1 mg/kg): 50.6%
- half-life ([1]; Wistar, iv, 0.1 mg/kg): 31.2 ± 6 min
- half-life ([1]; Wistar, sc, 0.1 mg/kg): 39.6 ± 1.8 min
- CL ([1]; in vivo): 514.46 ± 40.10 mL/h
- F (bioavailability) ([1]; in vivo): 50.6%
- Vd ([1]; in vivo): 0.4874 ± 0.02902 L
- Negative AUEC (drug-specific, testosterone-suppressive effect) [2, 3]: −1404.30 ± 287.31
- Positive AUEC (drug-specific, testosterone flare-up effect) [2, 3]: 208.24 ± 52.30
- Negative AUEC (drug-specific, testosterone-suppressive effect) [2, 4]: −775.98 ± 289.13
- Positive AUEC (drug-specific, testosterone flare-up effect) [2, 4]: 220.87 ± 39.56
